One series concerns ZIKV PAN2016 strain. The series can be described thus: Combinatorial effects of gossypol with other Z-medicaments, ZIKV PAN2016. To be noted: for Fold of Enhancement / CI (combination index): ZIKV PAN2016; for Fold of Enhancement: IC50 alone / in mixture; for CI (combination index): named compound in combination with gossypol. The format is cell-based, Zika virus (ZIKV). As for the experimental part:
(§1) The unbound viruses and Z-medicaments were removed, and the cells were cultured at 37° C. for 4-5 days, followed by staining with 0.5% crystal violet. The Z-medicaments without combinations were used as controls. The IC50 of the Z-medicaments was calculated as described above.
(§2) The Z-medicaments were then analyzed for synergistic effects based on the combination index (CI) and IC50 values using the CalcuSyn program. Specifically, CI values <1 and >1 indicate synergy and antagonism, respectively. Synergy was further identified as five different categories: CI values <0.1, 0.1-0.3, 0.3-0.7, 0.7-0.85, and 0.85-0.90 indicate very strong synergism, strong synergism, synergism, moderate synergism, and slight synergism, respectively. Fold enhancement of anti-ZIKV potency is expressed as the ratio of molar concentrations of the Z-medicaments tested alone and in the mixture.

The subject of the next series is ZIKV FLR strain. Kind of series: Combinatorial effects of gossypol with other Z-medicaments, ZIKV FLR. The format is cell-based, Zika virus (ZIKV). To be noted: for Fold of Enhancement / CI (combination index): ZIKV FLR; for Fold of Enhancement: IC50 alone / in mixture; for CI (combination index): named compound in combination with gossypol. As for the experimental part:
as §1, §2

The test system of series [1] is DENV-1-V1792 (2007/Vietnam). The series can be described thus: microbe, parasite or virus in culture. The source says:
(§3) Vero E6 and LLC-MK2 cells were maintained in Dulbecco's Modified Eagle Medium (DMEM) supplemented with 8% fetal bovine serum (FBS) and penicillin and streptomycin (P/S). C6/36 cells were maintained in Eagle's Minimal Essential Medium (EMEM) supplemented with 5% FBS and P/S. ZIKV strains, including human strains PAN2016 (2016/Panama), R116265 (2016/Mexico), PAN2015 (2015/Panama), FLR (2015/Colombia), R103451 (2015/Honduras), PRVABC59 (2015/Puerto Rico), PLCal_ZV (2013/Thailand), and IbH 30656 (1968/Nigeria), mosquito strain MEX 2-81 (2016/Mexico), and rhesus macaque strain MR 766 (1947/Uganda), were used in the studies. These ZIKV strains were cultured in Vero E6 cells, and viral titers were detected by a standard plaque-forming assay. DENV human strains, including type 1: DENV-1-V1792 (2007/Vietnam), type 2: DENV-2-V594 (2006/Puerto Rico), type 3: DENV-3-V1043 (2006/Puerto Rico), and type 4: DENV-4-PR 06-65-740 (2006/Puerto Rico), were cultured in C6/36 cells, and the viral titers were determined by plaque-forming assay as described above.
(§4) The inhibitory activity of the Z-medicaments against DENV-1-4 was performed following the similar procedures as for ZIKV, except that LLC-MK2 cells were used for the infection, and cells were cultured at 37° C. for 14-16 days before staining with 0.5% crystal violet.
(§5) After removal of the unbound compounds by centrifugation after addition of 3% PEG-6000, ZIKV was incubated with Vero E6 cells at 37° C. for 1 h. The cells were then washed with PBS, overlaid with DMEM containing 1% carboxymethyl cellulose and 2% FBS, and cultured at 37° C. for 4-5 days, followed by staining with 0.5% crystal violet.

In series [2] the test system is DENV-2-V594 (2006/Puerto Rico). Kind of series: microbe, parasite or virus in culture.
Description: as §3, §4, §5

In series [3] the test system is DENV-3-V1043 (2006/Puerto Rico). Kind of series: microbe, parasite or virus in culture.
Description: as §3, §4, §5

For series [4], the system named is DENV-4-PR 06-65-740 (2006/Puerto Rico). Kind of series: microbe, parasite or virus in culture.
Description: as §3, §4, §5

Where [5] appears, read: Dengue virus, DENV1, LLC-MK2, read-out: IC50 DENV-1-V1792, LLC-MK2 cells, Table 5.
[6] abbreviates: Dengue virus, DENV2, LLC-MK2, read-out: IC50 DENV-2-V594, LLC-MK2 cells, Table 5.
[7] abbreviates: Dengue virus, DENV3, LLC-MK2, read-out: IC50 DENV-3-V1043, LLC-MK2 cells, Table 5.
The mark [8] stands for this setting: Dengue virus, DENV4, LLC-MK2, read-out: IC50 DENV-4-PR 06-65-740, LLC-MK2 cells, Table 5.
[9] abbreviates: Zika virus, Vero C1008, read-out: IC50 Alone.

Where two headings read alike, the source gives them in different places.

Regarding `C[C@H]1[C@H]2CC[C@H]3[C@@H]4CC=C5C[C@@H](N(C)C)CC[C@]5(C)[C@H]4CC[C@]23CN1C` [Conessine, conessine], the “Fold of Enhancement” value in the series on ZIKV PAN2016 strain (gossypol + conessine) came out at 4.44; in the series on ZIKV FLR strain (gossypol + conessine) it was 2.13. The “CI (combination index)” value worked out at 0.44 in the series with ZIKV PAN2016 strain and 0.85 with ZIKV FLR strain.
In the case of `COc1cc(/C=C/C(=O)CC(=O)/C=C/c2ccc(O)c(OC)c2)ccc1O` [Curcumin, curcumin], the “Fold of Enhancement” value turned out to be 3.60 in the series on ZIKV PAN2016 strain (gossypol + curcumin) and 3.84 in the series with ZIKV FLR strain (gossypol + curcumin). The “CI (combination index)” value in the series on ZIKV PAN2016 strain was found to be 0.52; in the series on ZIKV FLR strain it was 0.49.
A word on the IC50: it is the point on the concentration scale where inhibition reaches its midpoint. In the case of `C[C@@H]1CC[C@@]2(OC1)O[C@H]1[C@@H](O)[C@H]3[C@@H]4CC[C@H]5C[C@@H](O[C@@H]6O[C@H](CO)[C@H](O[C@@H]7O[C@H](CO)[C@@H](O)[C@H](O[C@@H]8OC[C@@H](O)[C@H](O)[C@H]8O)[C@H]7O[C@@H]7O[C@H](CO)[C@H](O)[C@H](O[C@@H]8O[C@H](CO)[C@@H](O)[C@H](O)[C@H]8O)[C@H]7O)[C@H](O)[C@H]6O)[C@H](O)C[C@]5(C)[C@H]4CC[C@]3(C)[C@H]1[C@@H]2C` [Digitonin, digitonin], the “Fold of Enhancement” value with ZIKV PAN2016 strain (gossypol + digitonin) is on record as 3.21; in the series on ZIKV FLR strain (gossypol + digitonin), 2.04. In addition, the entries for the “CI (combination index)” value in the series with ZIKV PAN2016 strain and in the series with ZIKV FLR strain were 0.60 and 0.95, respectively. In addition, the IC50 in series [1] (setting [5]) was 5210 ± 350 nM; in series [2] (setting [6]), 6560 ± 210 nM; in series [3] (setting [7]), 4.07 ± 0.83 µM; in series [4] (setting [8]), 6440 ± 340 nM.
As to `Cc1cc2c(C(C)C)c(O)c(O)c(C=O)c2c(O)c1-c1c(C)cc2c(C(C)C)c(O)c(O)c(C=O)c2c1O` [Gossypol, gossypol], the IC50 with ZIKV PAN2016 strain (setting [9]) was determined as 3.79 ± 0.01 µM; in the series on ZIKV FLR strain (setting [9]), 260 ± 10 nM; in series [1] (setting [5]), 1870 nM; in series [1] (Dengue virus, DENV1, LLC-MK2, read-out: IC50 DENV-1-V1792, LLC-MK2 cells, Table 8) it was 2060 ± 130 nM; in series [2] (setting [6]), 1890 nM; in series [2] (Dengue virus, DENV2, LLC-MK2, read-out: IC50 DENV-2-V594, LLC-MK2 cells, Table 8), 1910 ± 10 nM. In addition, the IC50 was determined as 3.7 µM in series [3] (setting [7]); 3.42 ± 0.11 µM in series [3] (Dengue virus, DENV3, LLC-MK2, read-out: IC50 DENV-3-V1043, LLC-MK2 cells, Table 8); 2600 nM in series [4] (setting [8]); 2830 ± 70 nM in series [4] (Dengue virus, DENV4, LLC-MK2, read-out: IC50 DENV-4-PR 06-65-740, LLC-MK2 cells, Table 8).
With `Cc1cc2c(C(C)C)c(O)c(O)c(/C=N/n3c(=O)[nH][nH]c3=O)c2c(O)c1-c1c(C)cc2c(C(C)C)c(O)c(O)c(/C=N/n3c(=O)[nH][nH]c3=O)c2c1O` [ST087010], in series [1], the “SI (CC50/IC50), DENV-1-V1792” value worked out at 15.7. In addition, the IC50 was determined as 3010 ± 110 nM in series [1] (read-out: IC50 DENV-1-V1792, LLC-MK2 cells, Table 8); 3190 ± 10 nM in series [2] (read-out: IC50 DENV-2-V594, LLC-MK2 cells, Table 8); 3.33 ± 0.08 µM in series [3] (read-out: IC50 DENV-3-V1043, LLC-MK2 cells, Table 8); 2980 ± 180 nM in series [4] (read-out: IC50 DENV-4-PR 06-65-740, LLC-MK2 cells, Table 8). Further, the “SI (CC50/IC50), DENV-2-V594” value in series [2] was determined as 14.8. For the same compound, in series [3], the “SI (CC50/IC50), DENV-3-V1043” value is recorded as 14.2. In addition, the “SI (CC50/IC50), DENV-4-PR 06-65-740” value in series [4] is reported as 15.8.

Source of the values: patent publication US20220313651A1, “INHIBITORS OF ZIKA VIRUS INFECTION” (priority 2019, published 2022).
